Reference: ChEMBL document CHEMBL5244209, “Antiplasmodial and antimalarial activities of quinolone derivatives: An overview” (Eur J Med Chem, 2018)

How the values were obtained:
Plasmodium falciparum [1] = assay: Antiplasmodial activity against Plasmodium falciparum Tm90-C2B infected in human Erythrocyte measured after 72 hrs by SYBR green fluorescence dye based microplate reader analysis; type: functional, organism-based
Plasmodium falciparum [2] = assay: Antiplasmodial activity against Plasmodium falciparum Dd2 infected in human Erythrocyte measured after 72 hrs by SYBR green fluorescence dye based microplate reader analysis; type: functional, organism-based
Plasmodium falciparum [3] = assay: Antiplasmodial activity against Plasmodium falciparum D6 infected in human Erythrocyte measured after 72 hrs by SYBR green fluorescence dye based microplate reader analysis; type: functional, organism-based
Plasmodium falciparum [4] = assay: Antimalarial activity against Plasmodium falciparum Dd2; type: functional, organism-based
Plasmodium berghei = assay: Antiplasmodial activity against liver stage Plasmodium berghei ANKA infected in human HepG2 cells measured after 44 hrs; type: functional, organism-based; conditions: HepG2, 44 h
Plasmodium falciparum [5] = assay: Antimalarial activity against Antimalarial activity against chloroquine-sensitive Plasmodium falciparum FCR-3; type: functional, organism-based
FM3A = assay: Cytotoxicity against mouse FM3A cells; type: functional, cell-based
Plasmodium falciparum [6] = assay: Antimalarial activity against chloroquine-sensitive Plasmodium falciparum 3D7; type: functional, organism-based
Plasmodium falciparum [7] = assay: Antiplasmodial activity against chloroquine-sensitive Plasmodium falciparum 3D7 infected in human erythrocyte incubated for 72 hrs by SYBR green I staining based fluorescence assay; type: functional, organism-based; conditions: 3D7, Erythrocyte

SMILES	IC50 (Plasmodium falciparum [1]) [nM]	IC50 (Plasmodium falciparum [2]) [nM]	IC50 (Plasmodium falciparum [3]) [nM]	other results
CCCCCCCc1c(C)[nH]c2cc(F)cc(F)c2c1=O	81	1	0.1	–
COc1ccc2c(=O)c(-c3ccc(Oc4ccc(OC(F)(F)F)cc4)cc3)c(C)[nH]c2c1	–	–	–	IC50 (Plasmodium falciparum [4]): 3.85 nM
COc1cc2[nH]c(C)c(-c3ccccc3C)c(=O)c2cc1Cl	–	–	–	IC50 (Plasmodium berghei): 2.82 nM
COc1cc2[nH]c(C)c(-c3ccc(C(F)(F)F)cc3)c(=O)c2cc1Cl	–	–	–	IC50 (Plasmodium berghei): 3.07 nM
Cn1cc(C(=O)N/N=C/c2ccncc2)c(=O)c2cc(F)ccc21	–	–	–	IC50 (Plasmodium falciparum [5]): > 100000 nM
O=C(O)/C(=C\n1cc(C(=O)O)c(=O)c2cc(F)ccc21)c1cccnc1	–	–	–	IC50 (FM3A): > 100000 nM; IC50 (Plasmodium falciparum [6]): 24000 nM
CCCCCCCc1c(C)[nH]c2cc(O)ccc2c1=O	824	805	759	–
CCOC(=O)/C(=C\n1cc(C(=O)O)c(=O)c2cc(F)ccc21)c1ccccn1	–	–	–	IC50 (FM3A): > 100000 nM; IC50 (Plasmodium falciparum [6]): 21000 nM
CCOC(=O)c1cn(/C=C(\C(=O)O)c2cccnc2)c2ccc(F)cc2c1=O	–	–	–	IC50 (FM3A): > 100000 nM; IC50 (Plasmodium falciparum [6]): 29000 nM
CCCCCCCc1c(C)[nH]c2cc(C#N)ccc2c1=O	–	45	18	–
COc1ccc2c(=O)c(CCCCCCCCCCC(F)(F)F)c(C)[nH]c2c1	5	1	1	–
CCCCc1c(C)[nH]c2cc(OC)ccc2c1=O	92	29	29	–
Cn1cc(C(=O)N/N=C/c2ccccn2)c(=O)c2cc(C(F)(F)F)ccc21	–	–	–	IC50 (Plasmodium falciparum [5]): 6200 nM
Cn1cc(C(=O)N/N=C/c2ccccn2)c(=O)c2cc(F)ccc21	–	–	–	IC50 (Plasmodium falciparum [5]): 3300 nM
CCOC(=O)/C(=C\n1cc(C(=O)OCC)c(=O)c2cc(F)ccc21)c1ccccn1	–	–	–	IC50 (FM3A): > 100000 nM; IC50 (Plasmodium falciparum [6]): 21000 nM
CCCCCCCc1c(C)nc2cc(OC)ccc2c1O	11	3	4	–
CCCCCc1c(C)[nH]c2cc(OC)ccc2c1=O	52	12	8	–
CCCCCCCc1c(C)[nH]c2cc(Cl)ccc2c1=O	64	2	6	–
C=CC1CC2CCC1CC2[C@H](OC(=O)[C@@H](NC(=O)C1=CN(C2CC2)C2C=C(N3CCN(CC)CC3)C(F)=CC2C1=O)C(C)CC)c1cccc2ccc(OC)cc12 (some centres undefined)	–	–	–	IC50 (Plasmodium falciparum [7]): 207 nM
Cn1cc(C(=O)N/N=C/c2cccnc2)c(=O)c2cc(C(F)(F)F)ccc21	–	–	–	IC50 (Plasmodium falciparum [5]): > 100000 nM
